Target: T1, phosphopantetheinyl transferase Sfp (Bacillus subtilis, UniProt P39135)
T1 sequence (P39135 1-224): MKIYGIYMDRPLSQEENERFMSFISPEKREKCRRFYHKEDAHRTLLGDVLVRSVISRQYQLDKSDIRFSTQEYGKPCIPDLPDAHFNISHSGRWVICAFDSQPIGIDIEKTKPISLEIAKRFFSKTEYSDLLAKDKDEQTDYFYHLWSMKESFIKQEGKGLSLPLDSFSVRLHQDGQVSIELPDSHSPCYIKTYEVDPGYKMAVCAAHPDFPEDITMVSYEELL
Assay: FRET-quench phosphopantetheinyl transferase assay
Type: biochemical

Row | IC50 [µM] | SMILES
1 | 20 | Clc1ccc(C(c2ccc(Cl)cc2)n2cc[n+](CC(OCc3ccc(Cl)cc3Cl)c3ccc(Cl)cc3Cl)c2)cc1 (centres unmarked) [calmidazolium chloride]
2 | 3.2 | N=C1Sc2ccccc2C2=NCCCN12 [PD 404,182]
